# Source: patent publication US11866720B2, “Transgenic or non-transgenic plants with mutated protoporphyrinogen oxidase having increased tolerance to herbicides” (priority 2013, dated 2024)
# Like-named read-outs stand apart in the source and are kept apart here.
# Experiments:
# [1] = system: transgenic soybean expressing mutated PPO; assay type: in vivo, Glycine max; details: T1 soybean, field; for injury (1-5 point scale): key: 1: no obvious damage (no phytotoxicity); 2: minor amount of leaf damage, plant will survive; 3: moderate amount of leaf damage, plant will survive; 4: severe amount of leaf damage, plant will survive; 5: no surviving plants - all plants dead/dying
# [2] = system: transgenic Arabidopsis thaliana plants expressing wildtype or mutated PPO; experiment: Germination / growth inhibition assay of transgenic Arabidopsis T2 seeds in 48-well plates; details: growth inhibition seven to ten days after seeding
structure (smiles),measurement,setting,value
"CC(C)N(C)S(=O)(=O)NC(=O)c1cc(-n2c(=O)cc(C(F)(F)F)n(C)c2=O)c(F)cc1Cl [Saflufenacil, saflufenacil]",injury (1-5 point scale),"[1]; SDS-10648 AmtuPPX2L R128A_F420I, Saflufenacil 75 g ai/ha, 3 days after treatment",2
same,injury (1-5 point scale),"[1]; SDS-10648 AmtuPPX2L R128A_F420I, Saflufenacil 150 g ai/ha, 3 days after treatment",2
same,Injury rating (1-5 point scale),"[1]; SDS-10648 LTM386-1 AmtuPPX2L_R128A_F420I, Saflufenacil (75 gai/ha), 3 days after treatment",3
same,Injury rating (1-5 point scale),"[1]; SDS-10648 LTM386-1 AmtuPPX2L_R128A_F420I, Saflufenacil (150 gai/ha), 3 days after treatment",3
same,Injury rating (1-5 point scale),"[1]; SDS-10656 LTM377-1 AmtuPPX2L_dG210, Saflufenacil (75 gai/ha), 3 days after treatment",3.5
same,Injury rating (1-5 point scale),"[1]; SDS-10656 LTM377-1 AmtuPPX2L_dG210, Saflufenacil (150 gai/ha), 3 days after treatment",3.5
same,Injury rating (1-5 point scale),"[1]; SDS-10658 LTM386-1 AmtuPPX2L_R128A_F420I, Saflufenacil (75 gai/ha), 3 days after treatment",3.5
same,Injury rating (1-5 point scale),"[1]; SDS-10658 LTM386-1 AmtuPPX2L_R128A_F420I, Saflufenacil (150 gai/ha), 3 days after treatment",3.5
same,Injury rating (1-5 point scale),"[1]; SDS-10761 LTM383-1 AmtuPPX2L_F420M, Saflufenacil (75 gai/ha), 3 days after treatment",3
same,Injury rating (1-5 point scale),"[1]; SDS-10761 LTM383-1 AmtuPPX2L_F420M, Saflufenacil (150 gai/ha), 3 days after treatment",3
same,Injury rating (1-5 point scale),"[1]; SDS-10776 LTM386-1 AmtuPPX2L_R128A_F420I, Saflufenacil (75 gai/ha), 3 days after treatment",2
same,Injury rating (1-5 point scale),"[1]; SDS-10776 LTM386-1 AmtuPPX2L_R128A_F420I, Saflufenacil (150 gai/ha), 3 days after treatment",2.5
same,Injury rating (1-5 point scale),"[1]; SDS-10787 LTM384-1 AmtuPPX2L_R128A_F420L, Saflufenacil (75 gai/ha), 3 days after treatment",3
same,Injury rating (1-5 point scale),"[1]; SDS-10787 LTM384-1 AmtuPPX2L_R128A_F420L, Saflufenacil (150 gai/ha), 3 days after treatment",2.5
same,injury (1-5 point scale),"[1]; SDS-10791 AmtuPPX2L R128A_F420I, Saflufenacil 75 g ai/ha, 3 days after treatment",2
same,injury (1-5 point scale),"[1]; SDS-10791 AmtuPPX2L R128A_F420I, Saflufenacil 150 g ai/ha, 3 days after treatment",2
same,Injury rating (1-5 point scale),"[1]; SDS-10791 LTM386-1 AmtuPPX2L_R128A_F420I, Saflufenacil (75 gai/ha), 3 days after treatment",2
same,Injury rating (1-5 point scale),"[1]; SDS-10791 LTM386-1 AmtuPPX2L_R128A_F420I, Saflufenacil (150 gai/ha), 3 days after treatment",2
same,Injury rating (1-5 point scale),"[1]; SDS-10985 LTM385-1 AmtuPPX2L_R128A_F420M, Saflufenacil (75 gai/ha), 3 days after treatment",2
same,Injury rating (1-5 point scale),"[1]; SDS-10985 LTM385-1 AmtuPPX2L_R128A_F420M, Saflufenacil (150 gai/ha), 3 days after treatment",2
same,Injury rating (1-5 point scale),"[1]; SDS-10990 LTM385-1 AmtuPPX2L_R128A_F420M, Saflufenacil (75 gai/ha), 3 days after treatment",2.5
same,Injury rating (1-5 point scale),"[1]; SDS-10990 LTM385-1 AmtuPPX2L_R128A_F420M, Saflufenacil (150 gai/ha), 3 days after treatment",2.5
same,Injury rating (1-5 point scale),"[1]; SDS-10998 LTM387-1 AmtuPPX2L_R128A_F420V, Saflufenacil (75 gai/ha), 3 days after treatment",2
same,Injury rating (1-5 point scale),"[1]; SDS-10998 LTM387-1 AmtuPPX2L_R128A_F420V, Saflufenacil (150 gai/ha), 3 days after treatment",2
same,Injury rating (1-5 point scale),"[1]; SDS-11011 LTM385-1 AmtuPPX2L_R128A_F420M, Saflufenacil (75 gai/ha), 3 days after treatment",2
same,Injury rating (1-5 point scale),"[1]; SDS-11011 LTM385-1 AmtuPPX2L_R128A_F420M, Saflufenacil (150 gai/ha), 3 days after treatment",2
same,injury (1-5 point scale),"[1]; SDS-11014 AmtuPPX2L R128A_F420I, Saflufenacil 75 g ai/ha, 3 days after treatment",2
same,injury (1-5 point scale),"[1]; SDS-11014 AmtuPPX2L R128A_F420I, Saflufenacil 150 g ai/ha, 3 days after treatment",2
same,Injury rating (1-5 point scale),"[1]; SDS-11014 LTM386-1 AmtuPPX2L_R128A_F420I, Saflufenacil (75 gai/ha), 3 days after treatment",2
same,Injury rating (1-5 point scale),"[1]; SDS-11014 LTM386-1 AmtuPPX2L_R128A_F420I, Saflufenacil (150 gai/ha), 3 days after treatment",2
same,injury (1-5 point scale),"[1]; SDS-11034 AmtuPPX2L L397D_F420V, Saflufenacil 75 g ai/ha, 3 days after treatment",2
same,injury (1-5 point scale),"[1]; SDS-11034 AmtuPPX2L L397D_F420V, Saflufenacil 150 g ai/ha, 3 days after treatment",2
same,Injury rating (1-5 point scale),"[1]; SDS-11034 LTM387-1 AmtuPPX2L_R128A_F420V, Saflufenacil (75 gai/ha), 3 days after treatment",3
same,Injury rating (1-5 point scale),"[1]; SDS-11034 LTM387-1 AmtuPPX2L_R128A_F420V, Saflufenacil (150 gai/ha), 3 days after treatment",2
same,injury (1-5 point scale),"[1]; SDS-11035 AmtuPPX2L R128A_F420V, Saflufenacil 75 g ai/ha, 3 days after treatment",2
same,injury (1-5 point scale),"[1]; SDS-11035 AmtuPPX2L R128A_F420V, Saflufenacil 150 g ai/ha, 3 days after treatment",2
same,Injury rating (1-5 point scale),"[1]; SDS-11035 LTM387-1 AmtuPPX2L_R128A_F420V, Saflufenacil (75 gai/ha), 3 days after treatment",2
same,Injury rating (1-5 point scale),"[1]; SDS-11035 LTM387-1 AmtuPPX2L_R128A_F420V, Saflufenacil (150 gai/ha), 3 days after treatment",2
same,Injury rating (1-5 point scale),"[1]; SDS-11036 LTM386-1 AmtuPPX2L_R128A_F420I, Saflufenacil (75 gai/ha), 3 days after treatment",2.5
same,Injury rating (1-5 point scale),"[1]; SDS-11036 LTM386-1 AmtuPPX2L_R128A_F420I, Saflufenacil (150 gai/ha), 3 days after treatment",2.5
same,injury (1-5 point scale),"[1]; SDS-11052 AmtuPPX2L R128A_F420M, Saflufenacil 75 g ai/ha, 3 days after treatment",2
same,injury (1-5 point scale),"[1]; SDS-11052 AmtuPPX2L R128A_F420M, Saflufenacil 150 g ai/ha, 3 days after treatment",2
same,Injury rating (1-5 point scale),"[1]; SDS-11052 LTM385-1 AmtuPPX2L_R128A_F420M, Saflufenacil (75 gai/ha), 3 days after treatment",3
same,Injury rating (1-5 point scale),"[1]; SDS-11052 LTM385-1 AmtuPPX2L_R128A_F420M, Saflufenacil (150 gai/ha), 3 days after treatment",3
same,Injury rating (1-5 point scale),"[1]; SDS-11105 LTM387-1 AmtuPPX2L_R128A_F420V, Saflufenacil (75 gai/ha), 3 days after treatment",2.5
same,Injury rating (1-5 point scale),"[1]; SDS-11105 LTM387-1 AmtuPPX2L_R128A_F420V, Saflufenacil (150 gai/ha), 3 days after treatment",2.5
same,Injury rating (1-5 point scale),"[1]; SDS-11110 LTM387-1 AmtuPPX2L_R128A_F420V, Saflufenacil (75 gai/ha), 3 days after treatment",2.5
same,Injury rating (1-5 point scale),"[1]; SDS-11110 LTM387-1 AmtuPPX2L_R128A_F420V, Saflufenacil (150 gai/ha), 3 days after treatment",2.5
same,Injury rating (1-5 point scale),"[1]; SDS-11111 LTM386-1 AmtuPPX2L_R128A_F420I, Saflufenacil (75 gai/ha), 3 days after treatment",2.5
same,Injury rating (1-5 point scale),"[1]; SDS-11111 LTM386-1 AmtuPPX2L_R128A_F420I, Saflufenacil (150 gai/ha), 3 days after treatment",2.5
same,Injury rating (1-5 point scale),"[1]; SDS-11118 LTM386-1 AmtuPPX2L_R128A_F420I, Saflufenacil (75 gai/ha), 3 days after treatment",2
same,Injury rating (1-5 point scale),"[1]; SDS-11118 LTM386-1 AmtuPPX2L_R128A_F420I, Saflufenacil (150 gai/ha), 3 days after treatment",2
same,Injury rating (1-5 point scale),"[1]; Wildtype Jake, Saflufenacil (75 gai/ha), 3 days after treatment (Table 11e)",5
same,Injury rating (1-5 point scale),"[1]; Wildtype Jake, Saflufenacil (75 gai/ha), 3 days after treatment (Table 11d)",5
same,Injury rating (1-5 point scale),"[1]; Wildtype Jake, Saflufenacil (150 gai/ha), 3 days after treatment (Table 11e)",5
same,Injury rating (1-5 point scale),"[1]; Wildtype Jake, Saflufenacil (150 gai/ha), 3 days after treatment (Table 11d)",5
same,injury (1-5 point scale),"[1]; wild type, Saflufenacil 75 g ai/ha, 3 days after treatment",5
same,injury (1-5 point scale),"[1]; wild type, Saflufenacil 150 g ai/ha, 3 days after treatment",5
same,Injury rating (1-5 point scale),"[1]; wild type, saflufenacil: treatment 1 150 g ai/ha, treatment 2 0, 7 DAT",5
same,Injury rating (1-5 point scale),"[1]; wild type, saflufenacil: treatment 1 300 g ai/ha, treatment 2 300 g ai/ha, 14 DAT",5
same,Relative tolerance rate as compared to a non-transgenic Arabidopsis plant (non-transgenic = 1.0),[2]; transgenic Arabidopsis AMATU_PPO2_F420I,80
same,Relative tolerance rate as compared to a non-transgenic Arabidopsis plant (non-transgenic = 1.0),[2]; transgenic Arabidopsis AMATU_PPO2_F420L,192
same,Relative tolerance rate as compared to a non-transgenic Arabidopsis plant (non-transgenic = 1.0),[2]; transgenic Arabidopsis AMATU_PPO2_F420M,168
same,Relative tolerance rate as compared to a non-transgenic Arabidopsis plant (non-transgenic = 1.0),[2]; transgenic Arabidopsis AMATU_PPO2_R128A_F420I,1200
same,Relative tolerance rate as compared to a non-transgenic Arabidopsis plant (non-transgenic = 1.0),[2]; transgenic Arabidopsis AMATU_PPO2_R128A_F420L,1200
same,Relative tolerance rate as compared to a non-transgenic Arabidopsis plant (non-transgenic = 1.0),[2]; transgenic Arabidopsis AMATU_PPO2_R128A_F420M,1160
same,Relative tolerance rate as compared to a non-transgenic Arabidopsis plant (non-transgenic = 1.0),[2]; transgenic Arabidopsis AMATU_PPO2_R128L,160
same,Relative tolerance rate as compared to a non-transgenic Arabidopsis plant (non-transgenic = 1.0),[2]; transgenic Arabidopsis AMATU_PPO2_dG210,100
same,Relative tolerance rate as compared to a non-transgenic Arabidopsis plant (non-transgenic = 1.0),[2]; transgenic Arabidopsis AMATU_PPO2_dG210_R128L,1200
same,Relative tolerance rate as compared to a non-transgenic Arabidopsis plant (non-transgenic = 1.0),[2]; transgenic Arabidopsis AMATU_PPO2_wt,10
